The results in this text go back to patent publication US6569411B2, “Serine carbonates” (The Gillette Company, priority 1999, dated 2003).

For data set [1], the system named is Staphylococcus haemolyticus cells. The data set is described as follows: Sniff assay: malodor inhibition and fragrance production with axillary malodor precursors. Type of data set: cell-based. The note with it: 0.1% compound with malodor precursors and cells at 37° C., seven judges, 8-point scale. As to the method: The serine carbonate 2-Amino-3-(1,5,7-trimethyl-octyl-oxycarbonyloxy)-propionic acid has been tested in a sniff assay to determine whether, in the presence of Staphylococcus haemolyticus and axillary malodor precursors, production of malodor is inhibited and production of fragrance can be detected. For this assay, axillary washes, which contain malodor precursors, were dried into vials at a concentration sufficient to produce a strong axillary malodor when incubated with Staphylococcus haemolyticus cells. Vials were incubated at 37° C. with Staphylococcus haemolyticus cells. The vials contained […] with 0.1% 2-amino-3-(1,5,7-trimethyl-octyl-oxycarbonyloxy)-propionic acid. Control precursor vials were not incubated with the cells. The mixtures were extracted with chloroform and about 10 μl of the chloroform layers were spotted on bibulous paper. After the chloroform had evaporated, the papers were evaluated for malodor level and fragrance level. Evaluations were done by seven judges who rated malodor or fragrance strength on an 8-point scale from 0 (none) to 7 (extremely strong). Results were calculated as percent change from control malodor or precursor fragrance score.

Data set [2] shares this test system. In words: Gas chromatography assay of cleavage of serine carbonates by axilla bacteria. Type of data set: cell-based. The settings on record: 350 nmol of compound, 16-18 hours at 37° C. As to the method: This example is meant to illustrate, not to limit, the invention.
The synthesized amino acid derivatives were tested for their ability to be cleaved by bacteria normally found in human axilla. A 100 ml culture of Staphylococcus haemolyticus was grown overnight at 37° C. in TSB medium.
The cells were pelleted by centrifuging the culture at 5,000 rpm for 12 minutes, and the pelleted cells were resuspended in sterile saline. The cells were again pelleted and resuspended in sterile saline. After pelleting the cells once again, the cells were weighed and resuspended in sterile assay buffer (50 mM phosphate, pH 6.8, 1% glucose/dextran). The final concentration of cells was 0.05 g cells/ml (for the gas chromatography (GC) assay). These cell suspensions can be stored at 4° C.
The serine carbonate was prepared as stock solution at a concentration of approximately 5 mg/ml in 50 mM potassium phosphate buffer (pH 6.8). If necessary, the pH can be adjusted to 6.8-7.0 with 1N NaOH. The serine carbonate stock solution was sterilized by filtering through 0.22 μm filters.
For a negative control, the cells were incubated with 100 μl sterile phosphate buffer. […] The samples then were extracted into 100 μl chloroform and analyzed by gas chromatography.

Turning to `CC(C)CCCC(C)C1CCC2C3CC=C4CC(OC(=O)OCC(N)C(=O)O)CCC4(C)C3CCC12C` (centres unmarked), the melting point – broadly, the temperature of the solid-liquid transition – worked out at 147 °C. Take `CC(C)CC(C)CCCC(C)OC(=O)OCC(N)C(=O)O` (centres unmarked) [Example 3a, 2-Amino-3-(1,5,7-trimethyl-octyloxycarbonyloxy)-propionic acid]: the Malodor drop in data set [1] (percent change from control malodor score) was 50%. Further, the Fragrance increase in data set [1] (percent change from control precursor fragrance score) was 30%. As for `CC(CCOC(=O)OCC(N)C(=O)O)CCc1ccccc1` (centres unmarked) [Example 3e, 2-Amino-3-(3-methyl-5-phenyl-pentyloxycarbonyloxy)-propionic acid], in data set [2], the “precursor cleaved by the cells” value worked out at 40%. Further, the “3-methyl-5-phenyl-pentanol produced by the cell incubation” value in data set [2] (pH 6.8, GC analysis) amounted to 140 nmols.
